# Data from patent publication US6808877B2, “Ligands for FPR class receptors that induce a host immune response to a pathogen or inhibit HIV infection” (priority 2000, dated 2004).
# Where no end group is shown, it is not given here.
# Columns and labels:
# FPRL1 = target: T1, FPRL1 (Homo sapiens, UniProt P25090); assay: 3H-fMLP binding to FPRL1/293 cells
# T1 construct: expressed in transfected cells; host or cells: HEK 293
# T1 sequence (P25090 1-351): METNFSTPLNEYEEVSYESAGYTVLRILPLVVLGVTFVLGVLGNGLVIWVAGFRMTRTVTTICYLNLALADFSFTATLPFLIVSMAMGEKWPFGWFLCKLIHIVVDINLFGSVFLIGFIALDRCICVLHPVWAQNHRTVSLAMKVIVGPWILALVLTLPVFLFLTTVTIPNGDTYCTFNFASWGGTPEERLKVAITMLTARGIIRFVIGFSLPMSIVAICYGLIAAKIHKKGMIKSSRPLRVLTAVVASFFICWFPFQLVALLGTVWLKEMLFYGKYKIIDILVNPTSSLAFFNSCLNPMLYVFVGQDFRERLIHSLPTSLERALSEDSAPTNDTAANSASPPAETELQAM
# Protocol: The cells were then washed with ice-cold PBS (phosphate buffered saline) and filtered onto Whatman discs. The radioactivity associated with the cells was measured with a β counter.
# The samples were incubated under constant rotation for 30 minutes at 37° C. After incubation, the samples were filtered onto Whatman GF/C discs (Whatman International Ltd., Kent, UK) on a 12-well manifold followed by extensive washing with ice-cold phosphate-buffered saline (PBS). The discs were air-dried at 65° C., submerged in liquid scintilation cocktail, and counted for β emision.
# FPRL1(LXA4R) [1] = target: T2, FPRL1(LXA4R) (Homo sapiens, UniProt P25090); settings: CHO cells transfected with FPRL1(LXA4R); cited from earlier work
# T2 construct: host or cells: CHO cells
# T2 sequence (P25090 1-351): T1 sequence (P25090 1-351)
# FPRL1(LXA4R) [2] = target: T2, FPRL1(LXA4R); settings: CHO cells transfected with FPRL1(LXA4R); cited from earlier work; remark: listed apart in the source
# human neutrophils = settings: N-formylated or N-acetylated; cited from earlier work
compound,measurement,setting,value
CSCC[C@H](NC=O)C(=O)N[C@@H](CC(C)C)C(=O)N[C@@H](Cc1ccccc1)C(=O)O [^3H-fMLP],binding to cells,FPRL1,did not significantly bind
"CCCCC[C@H](O)/C=C/C=C\C=C\C=C\[C@@H](O)[C@@H](O)CCCC(=O)O [LXA4, lipoxin A4]",GTPase activity and release of esterified arachidonate,FPRL1(LXA4R) [1],increased GTPase activity and the release of esterified arachidonate
same,binding affinity,FPRL1(LXA4R) [2],high affinity
Met-Ile-Leu-Phe-Phe-OH (MILFF-OH) [ID; No. 2],potency in the induction of Ca2+ flux relative to fMLP,human neutrophils,more potent than parental fMLP
